Non-standard residues stand in square brackets, D forms with d. Residues, ends and D or L forms follow the SMILES beside them. Gly(N-(3-decanoyloxypropyl)) = CCCCCCCCCC(=O)OCCCNCC(=O)O; N(3-lauroyloxypropyl)Gly = CCCCCCCCCCCC(=O)OCCCNCC(=O)O; N(2-decanoyloxyethyl)Gly = CCCCCCCCCC(=O)OCCNCC(=O)O; N(2-ethylhexyl)Gly = CCCCC(CC)CNCC(=O)O; N(CH(CH2OH)2)Gly = O=C(O)CNC(CO)CO; N(octyl)Gly = CCCCCCCCNCC(=O)O
Experiments:
[1] = Delivery vehicle size and polydispersity by dynamic light scattering; type: physicochemical
Method in brief: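 LNPs made by microfluidic mixing of ethanolic peptoid/DSPC/cholesterol/DMG-PEG2000 (20:1.79:7.16:1.84 by weight) with mRNA in 10 mM citrate pH 5.0 at 1:3 by volume, then dialyzed overnight at 4 °C against tris-sucrose pH 7.4. Size and PDI read by dynamic light scattering in PBS.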

[2] = tested on: mRNA; assay: mRNA encapsulation (modified Quant-iT RiboGreen assay); type: physicochemical; conditions: for mean percent encapsulation of RNA: RiboGreen, without vs with Triton X-100; for % Encapsulation: mRNA
Method in brief: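 Peptoid nanoparticles were incubated with Triton X-100 for 10 min to release entrapped mRNA, then mixed with RiboGreen reagent and read by fluorescence (ex 485 nm/em 530 nm). Percent encapsulation was derived from the ratio of fluorescence without versus with Triton X-100.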

[3] = tested on: firefly luciferase; assay: In vivo firefly luciferase expression after intravenous injection of fLuc mRNA delivery vehicles (IVIS imaging); design: species or system female Balb/c mice; conditions: for Total Flux (luciferase expression): fLuc mRNA, intravenous, Balb/c mice; for Total Flux: mice, 2.5 ug fLuc mRNA intravenously, 6 hours post-injection
Method in brief: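 Female Balb/c mice (6-8 weeks) given 2.5 ug fLuc mRNA in Nutshells IV. At 6 hours, IP D-luciferin (30 mg/mL, 10 μL/g) under isoflurane; IVIS imaging 10 minutes later, then harvested organs imaged ex vivo. Read-out: total photon flux in regions of interest.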

[4] = tested on: hEPO; assay: Quantification of hEPO in serum after IV injection of mRNA (Human EPO ELISA); type: in vivo; conditions: Balb/c mice, 2.5 μg mRNA IV, serum after 6 hours
Protocol: Balb/c mice were treated with 2.5 μg of mRNA coding for human erythropoiten via IV injection according to a similar method as in Example 4. hEPO protein in the serum was quantified after 6 hours using the Human EPO ELISA Kit from Invitrogen (catalog #BMS2035-2). Wash buffer (PBS with 1% tween 20) and assay buffer (PBS with 1% tween 20, 10% BSA) were prepared from a 20× concentrate with milli-Q water. Serum samples were diluted with PBS according to expected EPO concentration, with a 50× dilution for low expression samples and up to a 30,000× dilution for samples expected to have high expression. Microwell strips were washed in a plate washer with wash buffer and tapped on an absorbent pad to remove excess buffer. 100 μL of sample diluent were added to each well that will be used for the standard curve. 50 μL of sample diluent was added to each sample well.
The standard curve was prepared by reconstituting the human erythropoietin standard by adding the volume of water listed on the vial label. Standard was swirled gently and allowed to reconstitute for 10 minutes prior to use, then 100 μL is added to standard wells and mixed well. 100 μL from standard wells were then transferred to sample wells and mixed well. This was repeated 5 times to produce 2 columns of standard dilutions from 100 to 1.6 mIU/mL. 100 μL was discarded from the last microwells. The final 2 wells contained 100 μL of sample diluent and served as a blank. An external standard was also included to facilitate a mIU/mL conversion to ng/mL. The same serial dilution method was repeated starting with the external standard at 6.25 ng/mL. Once the standards were added, 50 μL of each sample was added in duplicate to the sample wells. Next, the biotin-conjugate was prepared by diluting 1:100 in assay buffer. 50 μL of biotin-conjugate was added to all wells and the plate was covered with a plate seal and shaken at room temperature for 1 hour. During the last few minutes of shaking, streptavidin-HRP was prepared by diluting 1:100 in assay buffer. The plate was washed on a plate washer and tapped on an absorbent pad to remove remaining wash buffer.
100 μL of the diluted streptavidin-HRP was added to each well and the plate was sealed and shaken for 15 minutes at room temperature. After 15 minutes, the plate seal was removed and the plate was washed on a plate washer and remaining wash buffer tapped out on an absorbent pad. 100 μL of TMB substrate was added to all wells and the plate was incubated for 10 minutes at room temperature out of direct light. Color development was checked every few minutes and the assay was stopped when the highest standard was dark blue. The reaction was stopped by pipetting 100 μL of stop solution into each well. Immediately after stop solution was added, the plate was gently tapped to ensure the solution was mixed. Absorbance was then read at 450 nm for each well. A standard curve was plotted for both the kit-provided standards (mIU/mL) and the external standard (ng/mL) and fit using Prism. Sample absorbances that fell within the standard curve were interpolated and adjusted for dilution (including a 2× assay dilution). Samples that were not within the standard curve were repeated at an adjusted dilution.

[5] = Peptoid quantity remaining in liver by HPLC-TOF mass spectrometry; type: in vivo; conditions: liver homogenate
Protocol: Peptoid quantity in liver was determined via high-performance liquid chromatography coupled with time-of-flight mass spectrometer (HPLC-TOF). The entire liver was weighed, and then two sections were isolated using a provided biopsy punch for liver homogenization. Liver homogenate sample was prepared by resuspending 20 mg liver tissue in 400 μL extraction solvent (IPA/MeOH=8/2) containing an internal standard (400 pg/μL) followed by bead homogenization (45 sec per cycle for 3-4 cycles). Homogenized samples were centrifuged at 12,000 rpm for 8 min at 6 °C. The resulting supernatant was collected and stored at −20 °C for further LC analysis. 5 μL of the resulting supernatant sample from solid or liquid tissue was injected into a BEH C8 column on an Agilent 1290 Infinity II liquid chromatograph coupled with an Agilent 6230 LC-TOF system. Concentrations of peptoids were determined by a linear calibration curve (linear range:0.2-50 μg/g for solid tissue). Standard calibration curve solutions were prepared by spiking untreated liver followed by homogenization and centrifugation.

[6] = tested on: luciferase; assay: Luciferase expression after local (intramuscular or subcutaneous) administration of mRNA; type: in vivo; conditions: mRNA 0.01 mpk, 6 hours; for IM Flux: intramuscular; for SC Flux: subcutaneous
Method in brief: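 Female Balb/c mice (6-8 weeks) received fLuc mRNA in aminolipidated peptoid Nutshells at 0.01 mpk subcutaneously or intramuscularly, or 0.1 mpk intratumorally. At 6 hours, anesthetized mice were given D-luciferin IP and imaged 10 minutes later; harvested organs were also imaged and total photon flux quantified in regions of interest.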

[7] = DLS in PBS, peptoid:DSPC:Cholesterol:DMG-PEG2000 weight ratio 20:1.79:7.16:1.84, mRNA

PDI [1, 7]	Particle Size [1, 7] [nm]	Particle Size ([1]; formulation recipe R5) [nm]	Particle Size ([1]; formulation recipe R7) [nm]	Particle Size ([1]; formulation recipe R9) [nm]	mean percent encapsulation of RNA [2] [%]	% Encapsulation ([2]; formulation recipe R5) [%]	% Encapsulation ([2]; formulation recipe R7) [%]	% Encapsulation ([2]; formulation recipe R9) [%]	% of injected dose remaining in liver [5] [%]	Particle Size ([1]; formulation recipe D22) [nm]	% Encapsulation ([2]; formulation recipe D22) [%]	SMILES	Total Flux (luciferase expression) ([3]; formulation recipe R5) [p/s]	Total Flux (luciferase expression) ([3]; formulation recipe R7) [p/s]	Total Flux (luciferase expression) ([3]; formulation recipe R9) [p/s]	Total Flux [3] [p/s]	hEPO [4] [ng/mL]	IM Flux [6] [p/s]	SC Flux [6] [p/s]	Total Flux (luciferase expression) ([3]; formulation recipe D22) [p/s]	further results
0.135	90.0	57.2	69.1	59.0	55.7	92.2	87.8	93.3	6.65			CCCCCCCCCC(=O)OCCN(CC(=O)N(CCOC(=O)CCCCCCCCC)CC(=O)N(CC(=O)N(CCOC(=O)CCCCCCCCC)CC(=O)N(CCOC(=O)CCCCCCCCC)CC(=O)N(CC(N)=O)CC(CC)CCCC)CC(CC)CCCC)C(=O)CNC(CO)CO (stereo not drawn) [Compound 16] (H-[N(CH(CH2OH)2)Gly][N(2-decanoyloxyethyl)Gly][N(2-decanoyloxyethyl)Gly][N(2-ethylhexyl)Gly][N(2-decanoyloxyethyl)Gly][N(2-decanoyloxyethyl)Gly][N(2-ethylhexyl)Gly]-NH2)	6.72E+08	1.81E+09	1.14E+09	9.70E+09	422	3.09E+08	5.62E+08		Particle Size ([1]; formulation recipe F2): 71.0 nm; Particle Size ([1]; formulation recipe R1): 59.8 nm; % Encapsulation ([2]; formulation recipe F2): 90.8%; % Encapsulation ([2]; formulation recipe R1): 89.4%; Total Flux (luciferase expression) ([3]; formulation recipe F2): 2.35E+09 p/s; Total Flux (luciferase expression) ([3]; formulation recipe R1): 5.73E+08 p/s
0.156	89.3	65.5	65.1	64.9	59.3	86.0	79.1	92.7	8.18	89.3	59.3	CCCCCCCCCC(=O)OCCCN(CC(=O)N(CC(N)=O)CC(CC)CCCC)C(=O)CN(CCCCCCCC)C(=O)CN(CC(CC)CCCC)C(=O)CN(CCCOC(=O)CCCCCCCCC)C(=O)CN(CCCCCCCC)C(=O)CNC(CO)CO (stereo not drawn) [Compound 32] (H-[N(CH(CH2OH)2)Gly][N(octyl)Gly][Gly(N-(3-decanoyloxypropyl))][N(2-ethylhexyl)Gly][N(octyl)Gly][Gly(N-(3-decanoyloxypropyl))][N(2-ethylhexyl)Gly]-NH2)	5.34E+08	1.41E+09	8.16E+08	7.45E+09	642	1.45E+08	9.18E+08	7.45E+09	Particle Size ([1]; formulation recipe R2): 71.0 nm; Particle Size ([1]; formulation recipe R6): 68.4 nm; % Encapsulation ([2]; formulation recipe R2): 88.2%; % Encapsulation ([2]; formulation recipe R6): 93.7%; Total Flux (luciferase expression) ([3]; formulation recipe R2): 7.39E+08 p/s; Total Flux (luciferase expression) ([3]; formulation recipe R6): 9.19E+08 p/s
0.128	61.4				80.3				16.40	61.4	80.3	CCCCCCCCCCCC(=O)OCCCN(CC(=O)N(CC(=O)N(CC(=O)N(CCCOC(=O)CCCCCCCCCCC)CC(=O)N(CC(=O)N(CC(N)=O)CC(CC)CCCC)CC(CC)CCCC)CC(CC)CCCC)CC(CC)CCCC)C(=O)CNC(CO)CO (stereo not drawn) [Compound 51] (H-[N(CH(CH2OH)2)Gly][N(3-lauroyloxypropyl)Gly][N(2-ethylhexyl)Gly][N(2-ethylhexyl)Gly][N(3-lauroyloxypropyl)Gly][N(2-ethylhexyl)Gly][N(2-ethylhexyl)Gly]-NH2)				4.42E+09	591	1.84E+08	2.26E+08	4.42E+09	Particle Size ([1]; formulation recipe O5): 58.4 nm; Particle Size ([1]; formulation recipe O6): 56.7 nm; % Encapsulation ([2]; formulation recipe O5): 91.9%; % Encapsulation ([2]; formulation recipe O6): 91.8%; Total Flux (luciferase expression) ([3]; formulation recipe O5): 1.50E+09 p/s; Total Flux (luciferase expression) ([3]; formulation recipe O6): 1.27E+09 p/s

Source: patent publication US20260373248A1, “DEGRADABLE PEPTOIDS” (Medici Therapeutics, Inc., priority 2023, published 2026)
